In patent US6495571B1, “Pyridine compounds, use and preparation thereof” (Southern Research Institute, priority 1999, dated 2002):
Read-outs that look alike come from different tables or passages of the source.

How the values were obtained:
Cytotoxicity in vitro = format: cell-based
[1] = system: P388/CPA (cyclophosphamide-resistant) leukemia; format: in vivo, CD2F1 female mice; conditions: Q1D × 5 (1)
[2] = system: P388/L-PAM (melphalan-resistant) leukemia
[3] = system: P388/BCNU (carmustine-resistant) leukemia; experiment: Antitumor activity against IP-implanted P388/BCNU leukemia; conditions: Q1D × 5 (1)
[4] = system: human MX-1 mammary tumor (ic, 10^6 cells); experiment: In vivo antitumor activity, i.c.-implanted MX-1 xenograft
P388/0 murine leukemia = conditions: Q1D × 5 (1)
[5] = IP 60.0 mg/kg/dose, Q1D × 5 (1)
[6] = IP 135.0 mg/kg/dose, Q1D × 5 (1)
[7] = optimal doses (LD10 or less), schedule QD1-5, administered LP.

For `COc1nc(C(Cl)(Cl)Cl)c(Cl)c(O)c1Cl` [DM-PEN, 3,5-dichloro-2-methoxy-4-hydroxy-6-(trichloromethyl)pyridine], the “activity as cytotoxic agents in vitro” value (Cytotoxicity in vitro) was “inactive”, the “50-DAY SURV./TOTAL” value ([1]; IP 60.0 mg/kg/dose) was 0/6 and the “% ILS” value ([1]; IP 60.0 mg/kg/dose) was “+22%”. The “MEDIAN DAY OF DEATH” value ([1]; IP 60.0 mg/kg/dose) was 13.5, the “50-DAY SURV./TOTAL” value ([1]; IP 90.0 mg/kg/dose) was 0/6 and the “% ILS” value ([1]; IP 90.0 mg/kg/dose) was “+54%”. The “50-DAY SURV./TOTAL” value ([1]; IP 135.0 mg/kg/dose) was 0/6, the “% ILS” value ([1]; IP 135.0 mg/kg/dose) was “+31%” and the “MEDIAN DAY OF DEATH” value ([1]; IP 135.0 mg/kg/dose) was 14.5. The “50-DAY SURV./TOTAL” value [2, 5] was 0/6, the “MEDIAN DAY OF DEATH” value [2, 5] was 13.5 and the “50-DAY SURV./TOTAL” value ([2]; IP 90.0 mg/kg/dose, Q1D × 5 (1)) was 0/6. The “50-DAY SURV./TOTAL” value [2, 6] was 0/6, the “Lethality of the dosage (LD mark beside % ILS)” value [2, 6] was “LD33” and the “activity in this tumor model (in words)” value ([2]; mouse, in vivo) was “none of the three showed significant activity”. The “50-DAY SURV./TOTAL” value ([3]; IP 60.0 mg/kg/dose) was 0/6, the “% ILS” value ([3]; IP 60.0 mg/kg/dose) was “+33%” and the “APPROX. NET LOG10 CHANGE IN TUMOR BURDEN AT END OF Rx” value ([3]; IP 60.0 mg/kg/dose) was “+0.8”. The “50-DAY SURV./TOTAL” value ([3]; IP 90.0 mg/kg/dose) was 0/6, the “APPROX. NET LOG10 CHANGE IN TUMOR BURDEN AT END OF Rx” value ([3]; IP 90.0 mg/kg/dose) was −0.6 and the “MEDIAN DAY OF DEATH” value ([3]; IP 90.0 mg/kg/dose) was 14.0. For the same compound, the “50-DAY SURV./TOTAL” value ([3]; IP 135.0 mg/kg/dose) was 0/6, the “% ILS” value ([3]; IP 135.0 mg/kg/dose) was “+88%” and the “Lethality of the dosage (LD mark beside % ILS)” value ([3]; IP 135.0 mg/kg/dose) was “LD17”. The cures ([4]; Table 2 conditions) was “not”, the “Median % ILS (based on dying mice only)” value [4, 7] was 60% and the Survivors [4, 7] was 0/5. The “50-DAY SURV./TOTAL” value (P388/0 murine leukemia; IP 60.0 mg/kg/dose) was 0/6, the “50-DAY SURV./TOTAL” value (P388/0 murine leukemia; IP 90.0 mg/kg/dose) was 0/6 and the “MEDIAN DAY OF DEATH” value (P388/0 murine leukemia; IP 90.0 mg/kg/dose) was 19.0. The “50-DAY SURV./TOTAL” value (P388/0 murine leukemia; IP 135.0 mg/kg/dose) was 0/6, the “APPROX. NET LOG10 CHANGE IN TUMOR BURDEN AT END OF Rx” value (P388/0 murine leukemia; IP 135.0 mg/kg/dose) was “TOXIC” and the “MEDIAN DAY OF DEATH” value (P388/0 murine leukemia; IP 135.0 mg/kg/dose) was 8.5.
